“And” between values parts separate entries of the source, which are not always exact repeats. Identical values can stand only once.
The compounds below were run against Nonstructural protein 3 (Zika virus, UniProt A0A024AXB9) (assay: Functional biochemical assay to identify treatments for viral infectious disease that targets Zika NS2B-NS3 protease. Utilizing a direct enzyme activity measurement method, reading the fluorescence intensity is used to characterize the relative potency of inhibitors as IC50.).
Chain of Nonstructural protein 3 (A0A024AXB9 whole entry): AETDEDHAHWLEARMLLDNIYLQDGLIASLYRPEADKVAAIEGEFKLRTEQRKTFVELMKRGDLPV
Design: species or system PRVABC59

Row | IC50 | Structure (SMILES)
1 | > 99.5 µM | c1ccc(COc2cccc3[nH]cc(CN4CCC(c5cscn5)CC4)c23)cc1
2 | > 99.5 µM | NCc1cccc(NC(=O)[C@@H](NC(=O)OCc2ccccc2)c2cccc(OC[C@H]3CCCO3)c2)c1
3 | 18.1 µM and 11.3 µM | NCc1cccc([C@@H]2C[C@H]2c2cc(Cl)cc(NC(=O)OCc3ccccc3)c2)c1
4 | 81 µM | c1ccc2c(CNCc3ccc(-c4cscn4)cc3)c[nH]c2c1
5 | > 99.5 µM | Cn1cc(N2CCN(Cc3c[nH]c4ccccc34)CC2)cn1
6 | > 99.5 µM | O=C(c1cccnc1)N1CCN(Cc2c[nH]c3ccccc23)CC1
7 | > 99.5 µM | O=c1[nH]c2cccc(N3CCN(Cc4c[nH]c5ccccc45)CC3)c2[nH]1
8 | > 99.5 µM | CC(=O)N[C@H](C(=O)N[C@H]1C(=O)O[C@H]1C)c1ccc(OCc2ccccc2)cc1
9 | > 99.5 µM | O=C(Nc1cc(Cl)cc(C(=O)Nc2ncc3n2CCNC3)c1)OCc1ccccc1
10 | 54.7 µM | NCc1cccc(NC(=O)[C@@H]2[C@@H]3CCCCC[C@@H]3[C@@H]2NC(=O)OCc2ccccc2)c1
11 | > 99.5 µM | NC(=O)c1cnccc1N1CCN(Cc2c[nH]c3ccccc23)CC1
12 | > 99.5 µM | c1ccc(OC2CCN(Cc3c[nH]c4ccccc34)CC2)cc1
13 | 27.3 µM | NCc1cccc(NC(=O)[C@@H](NC(=O)OCc2ccccc2)c2cccc(OCC3CCC3)c2)c1
14 | > 99.5 µM | CN(C)Cc1nnc(NC(=O)[C@@H](NC(=O)OCc2ccccc2)c2ccc(OCc3ccccc3)cc2)s1
15 | > 99.5 µM | NCc1cccc(NC(=O)c2cc(NC(=O)OCc3ccccc3)cc(C(N)=O)c2)c1
16 | > 99.5 µM | NCc1cccc(S(=O)(=O)Nc2cc(Cl)cc(NC(=O)OCc3ccccc3)c2)c1
17 | > 99.5 µM | NCc1ccccc1Oc1ccc(S(=O)(=O)Nc2ccc(Cl)cc2C(=O)O)cc1
18 | > 99.5 µM | CN(C)Cc1csc(NC(=O)[C@@H](NC(=O)OCc2ccccc2)c2ccc(OCc3ccccc3)cc2)n1
19 | > 99.5 µM | Cc1nc(COc2ccc([C@@H](NC(=O)OCc3ccccc3)C(=O)Nc3cccc(CN)c3)cc2)cs1
20 | 98 µM | c1ccc2c(CN3CCN(c4ccncc4)CC3)c[nH]c2c1
21 | > 99.5 µM | O=S(=O)(c1cccnc1)N1CCN(Cc2c[nH]c3ccccc23)CC1
22 | > 99.5 µM | Fc1cc(F)c2[nH]cc(CN3CCC(c4cscn4)CC3)c2c1F
23 | 53.5 µM | O=C(Nc1cc(Cl)cc(C(=O)Nc2nc3c(s2)CCNC3)c1)OCc1ccccc1
24 | > 99.5 µM | COc1c(C)cc(C(=O)Nc2cccc(CN)c2)cc1NC(=O)OCc1ccccc1
25 | 46 µM | NCc1cccc(NC(=O)Cc2cc(Cl)cc(NC(=O)OCc3ccccc3)c2)c1
26 | > 99.5 µM | COc1ccc(CN(C)C)cc1NC(=O)[C@@H](NC(=O)OCc1ccccc1)c1ccc(OCc2ccccc2)cc1

Row | IC50 | Structure (SMILES)
27 | > 99.5 µM | CC(C)(C)OC(=O)Nc1cccc2[nH]cc(CN3CCC(c4cscn4)CC3)c12
28 | > 99.5 µM | NCc1nc(CNC(=O)c2cc(Cl)cc(NC(=O)OCc3ccccc3)c2)cs1
29 | > 99.5 µM | Cn1nc2c(c1NC(=O)[C@@H](NC(=O)OCc1ccccc1)c1ccc(OCc3ccccc3)cc1)CNC2
30 | 60.4 µM | Cc1c(NC(=O)OCc2ccccc2)cc(C(F)(F)F)cc1C(=O)Nc1cccc(CN)c1
31 | > 99.5 µM | c1ccc(COc2ccc3[nH]cc(CN4CCC(c5cscn5)CC4)c3c2)cc1
32 | > 99.5 µM | NCc1cccc(NC(=O)[C@H](NC(=O)OCc2ccccc2)c2cccc(OCc3ccncc3)c2)c1
33 | > 99.5 µM | NCc1cccc(NC(=O)[C@H](NC(=O)OCc2ccccc2)C2CCN(Cc3ccccc3)CC2)c1
34 | > 99.5 µM | NCc1cccc(NC(=O)[C@@H](NC(=O)OCc2ccccc2)c2ccc(OC[C@H]3CCCCO3)cc2)c1
35 | 40.3 µM | O=C(Nc1cc(Cl)cc(C(=O)Nc2n[nH]c3c2CNC3)c1)OCc1ccccc1
36 | > 99.5 µM | CCN1CC[C@H](COc2cccc([C@H](NC(=O)OCc3ccccc3)C(=O)Nc3cccc(CN)c3)c2)C1
37 | > 99.5 µM | Cc1c[nH]nc1CN1CCC(c2cscn2)CC1
38 | > 99.5 µM | O=C(Nc1cc(Cl)cc(C(=O)Nc2ncc([C@H]3CCCN3)s2)c1)OCc1ccccc1
39 | > 99.5 µM | CC(C)(C)c1ccc2[nH]cc(CN3CCC(c4cscn4)CC3)c2c1
40 | 59.3 µM | NCc1cccc(NC(=O)c2cc(Cl)cc(F)c2F)c1
41 | > 99.5 µM | O=C(Nc1cc(Cl)cc(C(=O)Nc2n[nH]c3c2CNC32CC2)c1)OCc1ccccc1
42 | > 99.5 µM | CN1CCC[C@H]1COc1cccc([C@@H](NC(=O)OCc2ccccc2)C(=O)Nc2cccc(CN)c2)c1
43 | > 99.5 µM | CCc1cccc2c(CN3CCC(c4cscn4)CC3)c[nH]c12
44 | > 99.5 µM | Cc1cc(NC(=O)OCc2ccccc2)cc(C(=O)Nc2cccc(CN)c2)c1C
45 | 68.9 µM | COc1cc(Br)ccc1[C@@H](NC(=O)OCc1ccccc1)C(=O)Nc1cccc(CN)c1
46 | > 99.5 µM | CN(C)Cc1ccc(N2CCN(Cc3c[nH]c4ccccc34)CC2)nc1
47 | > 99.5 µM | c1ccc(-c2c[nH]nc2CN2CCC(c3cscn3)CC2)cc1
48 | > 99.5 µM | CC(C)(C)c1cc(CN2CCC(c3cscn3)CC2)n[nH]1
49 | 78.4 µM | NCc1cccc(NC(=O)c2cc3c(c(NC(=O)OCc4ccccc4)c2)OCC3)c1
50 | > 99.5 µM | CN(C)Cc1cc(NC(=O)[C@@H](NC(=O)OCc2ccccc2)c2ccc(OCc3ccccc3)cc2)ccc1Cl
51 | > 99.5 µM | Cc1ccc(NC(=O)OC(C)(C)C)c2[nH]cc(CN3CCC(c4cscn4)CC3)c12
52 | > 99.5 µM | O=C(Nc1cc(Cl)cc(C(=O)Nc2cnc3n2CCNC3)c1)OCc1ccccc1

Row | IC50 | Structure (SMILES)
53 | > 99.5 µM | NCc1cccc(NC(=O)[C@@H]2CCC[C@@H](NC(=O)OCc3ccccc3)C2)c1
54 | 6.42 µM | NCc1cccc(NC(=O)[C@@H](NC(=O)OCc2ccccc2)c2ccc(-c3cccc4nonc34)cc2)c1
55 | 89.6 µM | c1ccc(CC2CCN(Cc3c[nH]c4ccccc34)CC2)cc1
56 | > 99.5 µM | O=C1CN(Cc2c[nH]c3ccccc23)CCN1c1cccnc1
57 | > 99.5 µM | CC(C)N1C(=O)C[C@H](C(=O)Nc2cccc(CN)c2)[C@H]1c1ccc(Cl)c(F)c1
58 | > 99.5 µM | O=C(N[C@@H](C(=O)Nc1n[nH]c2c1CNC21CC1)c1ccc(OCc2ccccc2)cc1)OCc1ccccc1
59 | 49.6 µM | COc1cc2c(CN3CCC(c4cscn4)CC3)c[nH]c2cc1Cl
60 | > 99.5 µM | Cn1nc(NC(=O)[C@@H](NC(=O)OCc2ccccc2)c2ccc(OCc3ccccc3)cc2)c2c1CNC2
61 | > 99.5 µM | c1cncc(N2CCCN(Cc3c[nH]c4ccccc34)CC2)c1
62 | > 99.5 µM | O=C(Nc1cc(Cl)cc(C(=O)Nc2cc3n(n2)CCNC3)c1)OCc1ccccc1
63 | 74.3 µM | Clc1cc(Cl)c2c(CN3CCC(c4cscn4)CC3)c[nH]c2c1
64 | 17.8 µM | N#Cc1ccc2[nH]cc(CN3CCC(c4cscn4)CC3)c2c1
65 | 22.1 µM | NCc1cccc(NC(=O)c2cc(Cl)cc(CNC(=O)OCc3ccccc3)c2)c1
66 | 16.6 µM | NCc1cccc(C(=O)Nc2cc(Cl)cc(NC(=O)OCc3ccccc3)c2)c1
67 | > 99.5 µM | c1ccc2c(CN3CC(c4cscn4)C3)c[nH]c2c1
68 | 48.7 µM | NCc1cccc(NC(=O)c2ccc(OCC(F)(F)F)c(NC(=O)OCc3ccccc3)c2)c1
69 | > 99.5 µM | c1cc(-c2cc(CN3CCC(c4cscn4)CC3)n[nH]2)ccn1
70 | 9.66 µM and 8.77 µM | NCc1cccc(NC(=O)[C@@H](NC(=O)OCc2ccccc2)c2ccc(Br)c(Cl)c2)c1
71 | > 99.5 µM | O=C(N[C@@H](C(=O)Nc1nc2c(s1)CNC2)c1ccc(OCc2ccccc2)cc1)OCc1ccccc1
72 | > 99.5 µM | N#Cc1cccc2c(CN3CCC(c4cscn4)CC3)c[nH]c12
73 | > 99.5 µM | C1=C(c2cccnc2)CN(Cc2c[nH]c3ccccc23)CC1
74 | > 99.5 µM | FC1(c2cccnc2)CN(Cc2c[nH]c3ccccc23)C1
75 | 85.7 µM | O=C(Nc1cc(Cl)cc(C(=O)Nc2nc3c(s2)CNC3)c1)OCc1ccccc1
76 | > 99.5 µM | Cc1ccc(CN(C)C)cc1NC(=O)[C@@H](NC(=O)OCc1ccccc1)c1ccc(OCc2ccccc2)cc1
77 | > 99.5 µM | CN1CCn2nc(NC(=O)[C@@H](NC(=O)OCc3ccccc3)c3ccc(OCc4ccccc4)cc3)cc2C1
78 | > 99.5 µM | c1cncc([C@@H]2CN(Cc3c[nH]c4ccccc34)CCO2)c1

Row | IC50 | Structure (SMILES)
79 | > 99.5 µM | Cc1c(C(F)(F)F)n[nH]c1CN1CCC(c2cscn2)CC1
80 | 36.4 µM | C#Cc1cc(NC(=O)OCc2ccccc2)cc(C(=O)Nc2cccc(CN)c2)c1
81 | > 99.5 µM | COc1cc(NC(=O)OCc2ccccc2)cc(C(=O)Nc2cccc(CN)c2)c1OC
82 | > 99.5 µM | O=C1O[C@H]2CCN(Cc3ccc(OCc4ccccc4)cc3)C[C@H]12
83 | 5.81 µM | Cc1[nH]c2ccccc2c1CN1CCC(c2c[nH]c3ncccc23)CC1
84 | 64.3 µM | O=C(Nc1cccnc1)C1CCN(Cc2c[nH]c3ccccc23)CC1
85 | > 99.5 µM | c1cnc2[nH]cc(C3CCN(Cc4c[nH]c5cnccc45)CC3)c2c1
86 | > 99.5 µM | O=C(N[C@@H](C(=O)Nc1ncc([C@H]2CCCN2)s1)c1ccc(OCc2ccccc2)cc1)OCc1ccccc1
87 | > 99.5 µM | NCc1cccc(NC(=O)c2cc(N)cc(NC(=O)OCc3ccccc3)c2)c1
88 | > 99.5 µM | CN1CCc2nc(NC(=O)[C@@H](NC(=O)OCc3ccccc3)c3ccc(OCc4ccccc4)cc3)sc2C1
89 | > 99.5 µM | CN(Cc1cccnc1)Cc1c[nH]c2ccccc12
90 | > 99.5 µM | CCN1CC[C@@H](COc2ccc([C@@H](NC(=O)OCc3ccccc3)C(=O)Nc3cccc(CN)c3)cc2)C1
91 | > 99.5 µM | Cn1nc(NC(=O)c2cc(Cl)cc(NC(=O)OCc3ccccc3)c2)c2c1CNC2
92 | > 99.5 µM | NCc1cccc(NC(=O)c2cc(Cl)ccc2NS(=O)(=O)c2ccccc2)c1
93 | > 99.5 µM | c1ccc([C@H](NCc2c[nH]c3ccccc23)c2cccnc2)cc1
94 | 98.8 µM | COCc1ccccc1Nc1ccc(S(=O)(=O)Nc2ccc(Cl)cc2C(=O)O)cn1
95 | > 99.5 µM | CC[C@@H](NCc1c[nH]c2ccccc12)c1cccnc1
96 | 72 µM | NC[C@@H]1CN(c2cc(N3CC[C@H](N)C3)cc3c2COB3O)C(=O)O1
97 | 64.5 µM | NCc1cccc(NC(=O)[C@H](NS(=O)(=O)Cc2ccccc2)c2ccc(OCc3ccccc3)cc2)c1
98 | 46.7 µM | O=C(O)c1cc(Cl)ccc1NS(=O)(=O)c1ccc(Nc2ccccc2F)nc1
99 | 85.6 µM | N#Cc1cccc(N2CCN(Cc3c[nH]c4ccccc34)CC2)c1
100 | 14.4 µM and 12.8 µM | NCc1cccc(NC(=O)C[C@@H](NC(=O)OCc2ccccc2)c2ccc(Cl)c(Br)c2)c1
101 | > 99.5 µM | c1ccc([C@@H]2C[C@H]3C[C@@H]2C[C@H]3NCc2n[nH]c3ccccc23)cc1

Source: ChEMBL document CHEMBL5604062, “ASAP - ZIKV NS2B-NS3 protease fluorescence dose response” (2024)
